BindingDB's records for patent US11919896 (Zhuhai United Laboratories Co., 2024)

What was measured:
Assay in all cases: In Vitro Test of Activities of Jak1, Jak2, Jak3, Tyk2 Kinases
[1] = target: Non-receptor tyrosine-protein kinase TYK2 (Homo sapiens, UniProt P29597)
Procedure: (§1) All the compounds were prepared into 100% DMSO solution and the concentration reached final measured concentration of 50 times. The test compound was diluted by a 3-fold concentration gradient, and the final concentration was 9 concentrations from 10 μM to 0.001 μM. The content of DMSO in the detect reaction was 2%. The stock solution of this compound was added into wells as a first component, then the other components were added as the following detailed process. […] Mixture of Mg/ATP was added to start reaction, which was stopped by adding 0.5% phosphoric acid after 40 minutes incubation.

[2] = target: Tyrosine-protein kinase JAK1 (Homo sapiens, UniProt P23458)
Procedure: All the compounds were prepared into 100% DMSO solution and the concentration reached final measured concentration of 50 times. The test compound was diluted by a 3-fold concentration gradient, and the final concentration was 9 concentrations from 10 μM to 0.001 μM. The content of DMSO in the detect reaction was 2%. […] Mixture of Mg/ATP was added to start reaction, which was stopped by adding 0.5% phosphoric acid after 40 minutes incubation at room temperature.

[3] = target: Tyrosine-protein kinase JAK2 (Homo sapiens, UniProt O60674)
Procedure: as §1

[4] = target: T1, Tyrosine-protein kinase JAK3 (Homo sapiens, UniProt P52333)
T1 sequence (P52333 whole entry): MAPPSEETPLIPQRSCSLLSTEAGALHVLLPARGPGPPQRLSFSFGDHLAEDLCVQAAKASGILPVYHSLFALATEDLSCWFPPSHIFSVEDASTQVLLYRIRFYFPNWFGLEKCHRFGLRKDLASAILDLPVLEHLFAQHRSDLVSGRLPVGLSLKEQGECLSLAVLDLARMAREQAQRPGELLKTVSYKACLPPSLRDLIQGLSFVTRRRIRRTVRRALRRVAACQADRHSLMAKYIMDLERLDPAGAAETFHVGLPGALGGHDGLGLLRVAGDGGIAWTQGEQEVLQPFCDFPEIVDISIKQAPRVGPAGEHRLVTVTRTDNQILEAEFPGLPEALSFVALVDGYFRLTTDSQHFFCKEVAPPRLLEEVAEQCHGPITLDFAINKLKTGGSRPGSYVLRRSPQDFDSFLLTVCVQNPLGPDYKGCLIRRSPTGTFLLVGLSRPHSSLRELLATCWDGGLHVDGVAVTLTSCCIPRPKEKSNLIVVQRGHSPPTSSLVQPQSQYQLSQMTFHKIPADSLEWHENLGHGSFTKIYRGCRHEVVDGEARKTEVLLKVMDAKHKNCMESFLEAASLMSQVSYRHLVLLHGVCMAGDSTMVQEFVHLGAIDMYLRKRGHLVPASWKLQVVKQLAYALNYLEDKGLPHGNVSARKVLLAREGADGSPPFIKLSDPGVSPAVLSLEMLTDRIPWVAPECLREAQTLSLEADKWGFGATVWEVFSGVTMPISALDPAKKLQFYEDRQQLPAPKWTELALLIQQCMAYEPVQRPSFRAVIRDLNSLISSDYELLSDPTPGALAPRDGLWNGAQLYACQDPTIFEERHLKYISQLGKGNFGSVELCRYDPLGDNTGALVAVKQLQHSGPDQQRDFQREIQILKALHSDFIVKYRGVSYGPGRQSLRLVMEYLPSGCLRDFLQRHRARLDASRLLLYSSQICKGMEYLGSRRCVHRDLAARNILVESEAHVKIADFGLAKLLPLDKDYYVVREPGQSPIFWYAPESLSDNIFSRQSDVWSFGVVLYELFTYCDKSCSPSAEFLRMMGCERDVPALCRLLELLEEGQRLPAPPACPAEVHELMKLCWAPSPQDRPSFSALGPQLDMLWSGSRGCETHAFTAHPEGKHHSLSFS
Procedure: as §1

Sequence of Non-receptor tyrosine-protein kinase TYK2 (P29597 whole entry): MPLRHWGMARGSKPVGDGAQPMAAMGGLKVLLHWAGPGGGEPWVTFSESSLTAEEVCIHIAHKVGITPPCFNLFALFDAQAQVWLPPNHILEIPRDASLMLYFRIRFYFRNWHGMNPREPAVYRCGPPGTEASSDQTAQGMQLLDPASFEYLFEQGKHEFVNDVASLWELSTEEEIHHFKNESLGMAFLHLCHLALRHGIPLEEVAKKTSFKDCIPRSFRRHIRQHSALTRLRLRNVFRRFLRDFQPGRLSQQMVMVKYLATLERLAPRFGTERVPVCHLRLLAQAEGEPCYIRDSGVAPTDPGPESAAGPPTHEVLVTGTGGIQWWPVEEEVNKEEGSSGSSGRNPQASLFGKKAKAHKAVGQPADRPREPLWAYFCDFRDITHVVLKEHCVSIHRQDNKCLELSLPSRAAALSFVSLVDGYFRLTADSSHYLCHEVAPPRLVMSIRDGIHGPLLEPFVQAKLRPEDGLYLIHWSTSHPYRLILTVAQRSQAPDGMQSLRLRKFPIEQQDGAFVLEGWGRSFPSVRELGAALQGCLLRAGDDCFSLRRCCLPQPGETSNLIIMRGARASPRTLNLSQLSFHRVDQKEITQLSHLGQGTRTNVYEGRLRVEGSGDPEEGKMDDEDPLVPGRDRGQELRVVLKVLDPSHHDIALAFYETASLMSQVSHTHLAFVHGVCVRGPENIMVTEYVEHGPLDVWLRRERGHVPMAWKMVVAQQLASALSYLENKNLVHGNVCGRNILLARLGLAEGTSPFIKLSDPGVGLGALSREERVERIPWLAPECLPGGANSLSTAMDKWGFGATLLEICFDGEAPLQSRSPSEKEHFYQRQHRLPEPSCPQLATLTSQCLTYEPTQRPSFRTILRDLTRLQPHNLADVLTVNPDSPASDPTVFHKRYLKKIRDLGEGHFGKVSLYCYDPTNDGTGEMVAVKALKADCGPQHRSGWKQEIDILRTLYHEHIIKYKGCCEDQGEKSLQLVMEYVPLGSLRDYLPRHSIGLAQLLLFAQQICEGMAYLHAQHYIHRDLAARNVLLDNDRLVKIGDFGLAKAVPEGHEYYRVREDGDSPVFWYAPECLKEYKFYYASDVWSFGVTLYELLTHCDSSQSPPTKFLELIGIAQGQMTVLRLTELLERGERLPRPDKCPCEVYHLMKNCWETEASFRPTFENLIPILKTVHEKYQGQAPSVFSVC
Sequence of Tyrosine-protein kinase JAK2 (O60674 whole entry): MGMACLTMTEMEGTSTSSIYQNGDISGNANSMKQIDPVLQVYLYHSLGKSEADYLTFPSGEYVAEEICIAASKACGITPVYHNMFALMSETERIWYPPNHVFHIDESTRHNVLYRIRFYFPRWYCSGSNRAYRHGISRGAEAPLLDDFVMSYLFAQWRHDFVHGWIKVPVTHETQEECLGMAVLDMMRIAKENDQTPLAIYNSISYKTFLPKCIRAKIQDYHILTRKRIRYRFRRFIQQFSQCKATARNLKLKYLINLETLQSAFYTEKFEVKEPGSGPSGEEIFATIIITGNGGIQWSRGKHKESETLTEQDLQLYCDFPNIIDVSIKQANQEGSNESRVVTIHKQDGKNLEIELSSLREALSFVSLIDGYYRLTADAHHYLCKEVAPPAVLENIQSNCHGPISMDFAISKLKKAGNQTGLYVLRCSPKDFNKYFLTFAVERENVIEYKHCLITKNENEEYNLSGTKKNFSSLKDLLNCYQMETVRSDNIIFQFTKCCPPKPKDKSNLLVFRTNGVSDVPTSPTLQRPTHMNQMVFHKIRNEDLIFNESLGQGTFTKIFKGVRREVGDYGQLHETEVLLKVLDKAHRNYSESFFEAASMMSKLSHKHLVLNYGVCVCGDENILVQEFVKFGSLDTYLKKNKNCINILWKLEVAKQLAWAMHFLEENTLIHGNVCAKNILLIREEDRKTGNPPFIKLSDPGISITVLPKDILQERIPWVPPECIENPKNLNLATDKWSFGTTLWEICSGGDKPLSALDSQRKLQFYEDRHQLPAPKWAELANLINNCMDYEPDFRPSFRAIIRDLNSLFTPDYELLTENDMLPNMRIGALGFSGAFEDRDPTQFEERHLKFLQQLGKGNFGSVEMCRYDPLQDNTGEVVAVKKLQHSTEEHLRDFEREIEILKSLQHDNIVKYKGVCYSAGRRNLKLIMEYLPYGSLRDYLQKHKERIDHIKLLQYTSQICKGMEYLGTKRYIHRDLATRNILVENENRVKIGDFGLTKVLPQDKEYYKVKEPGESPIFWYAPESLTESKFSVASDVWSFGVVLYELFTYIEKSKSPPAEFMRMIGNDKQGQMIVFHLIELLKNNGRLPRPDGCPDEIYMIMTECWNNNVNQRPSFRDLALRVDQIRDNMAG
Sequence of Tyrosine-protein kinase JAK1 (P23458 whole entry): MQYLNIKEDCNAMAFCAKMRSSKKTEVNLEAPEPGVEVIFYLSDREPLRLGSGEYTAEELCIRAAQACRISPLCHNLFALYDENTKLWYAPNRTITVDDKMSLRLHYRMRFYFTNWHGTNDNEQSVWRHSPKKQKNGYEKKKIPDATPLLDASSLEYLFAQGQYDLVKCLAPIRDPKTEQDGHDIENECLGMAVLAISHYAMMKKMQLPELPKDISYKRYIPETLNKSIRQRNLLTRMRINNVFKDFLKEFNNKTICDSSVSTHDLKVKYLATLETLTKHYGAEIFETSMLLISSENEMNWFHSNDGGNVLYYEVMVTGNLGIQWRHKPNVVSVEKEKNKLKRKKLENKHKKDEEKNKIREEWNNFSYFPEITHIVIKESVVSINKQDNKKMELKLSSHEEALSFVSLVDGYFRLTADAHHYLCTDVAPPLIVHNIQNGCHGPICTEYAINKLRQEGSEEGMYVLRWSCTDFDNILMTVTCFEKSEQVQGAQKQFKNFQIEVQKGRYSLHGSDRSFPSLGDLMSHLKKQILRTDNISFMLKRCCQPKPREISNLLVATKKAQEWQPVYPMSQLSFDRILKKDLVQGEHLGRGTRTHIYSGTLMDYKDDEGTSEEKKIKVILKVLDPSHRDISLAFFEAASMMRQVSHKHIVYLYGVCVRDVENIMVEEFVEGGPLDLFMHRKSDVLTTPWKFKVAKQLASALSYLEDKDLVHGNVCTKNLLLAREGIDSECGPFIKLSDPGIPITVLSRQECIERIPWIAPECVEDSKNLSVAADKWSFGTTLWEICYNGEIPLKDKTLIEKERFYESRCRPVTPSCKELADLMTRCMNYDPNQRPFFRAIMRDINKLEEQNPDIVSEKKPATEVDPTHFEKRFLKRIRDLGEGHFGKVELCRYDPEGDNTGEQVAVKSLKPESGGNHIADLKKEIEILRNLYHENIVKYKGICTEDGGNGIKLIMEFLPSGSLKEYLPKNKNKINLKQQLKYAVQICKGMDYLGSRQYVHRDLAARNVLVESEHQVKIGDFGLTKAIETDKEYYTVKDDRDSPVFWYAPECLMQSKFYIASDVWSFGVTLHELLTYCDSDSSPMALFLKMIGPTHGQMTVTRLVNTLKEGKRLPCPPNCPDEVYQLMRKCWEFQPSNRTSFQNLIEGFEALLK

SMILES | IC50 [1] | IC50 [2] | IC50 [3] | IC50 [4]
O=C(Nc1nc2cccc(C3(F)CCC4(CC3)CN(C(=O)CC(F)(F)F)C4)n2n1)C1CC1 [US11919896, Compound 4-7] | 194 nM | 436 nM | 7690 nM | > 10000 nM
N#CCC(=O)N1CC2(CCC(c3cccc4nc(NC(=O)[C@H]5CC5(F)F)nn34)CC2)C1 [US11919896, Compound 8-8] | 109 nM | 60 nM | 1380 nM | > 10000 nM
O=C(Nc1nc2cccc(C3CCC4(CC3)CN(C(=O)C3(F)CC3)C4)n2n1)[C@@H]1CC1(F)F [US11919896, Compound 9-4] | 1190 nM | 253 nM | 982 nM | > 10000 nM
N#CCC(=O)N1CC2(CCC(c3cccc4nc(NC(=O)C5CC5(F)F)nn34)CC2)C1 (stereo not drawn) [US11919896, Compound 9-5] | 175 nM | 224 nM | 624 nM | –
O=C(Nc1nc2cccc(C3(F)CCC4(CC3)CN(C(=O)CC(F)F)C4)n2n1)C1CC1 [US11919896, Compound 4-8] | > 10000 nM | 244 nM | 3710 nM | 364 nM
O=C(Nc1nc2cccc(C3CCC4(CC3)CN(C(=O)C3(F)CC3)C4)n2n1)[C@H]1CC1(F)F [US11919896, Compound 8-7] | 1030 nM | 63 nM | 5460 nM | > 10000 nM
